Assays:
clKASIV = target: T1, clKASIV (Cuphea lanceolata, UniProt Q949J2); assay: Enzyme assay: sensitivity of recombinant clKASIV to cerulenin; assay type: biochemical; details: condensation assay with [2-14C]-malonyl-ACP
T1 sequence (Q949J2 106-538): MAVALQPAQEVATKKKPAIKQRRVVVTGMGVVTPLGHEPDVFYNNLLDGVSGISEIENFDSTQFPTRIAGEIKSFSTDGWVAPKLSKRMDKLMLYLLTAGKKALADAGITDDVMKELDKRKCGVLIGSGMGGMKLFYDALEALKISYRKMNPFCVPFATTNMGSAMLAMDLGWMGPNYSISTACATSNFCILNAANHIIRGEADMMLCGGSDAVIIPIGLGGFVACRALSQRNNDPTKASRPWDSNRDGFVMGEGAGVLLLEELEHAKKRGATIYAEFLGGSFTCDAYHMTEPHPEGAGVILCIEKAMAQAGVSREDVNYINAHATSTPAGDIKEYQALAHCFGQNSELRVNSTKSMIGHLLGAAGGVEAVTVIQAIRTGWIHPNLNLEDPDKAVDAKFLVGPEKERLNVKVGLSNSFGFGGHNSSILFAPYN
Method: The substrate specificities of the recombinant KASII and KASIV enzymes was investigated by incorporating radioactivity of [2-1^4C]-malonyl-ACP into the condensation products. The batch ([…]) contained 100 mM sodium phosphate, pH 7.6, 10 µM acyl-ACP with a specific chain length, 7.5 μM [2-^14C]-malonyl-ACP (0.74 MBq/mmol), 2 mM NADPH, 2 mM DTT, 0.6 Fkat of affinity-purified recombinant GST-β-ketoacyl-ACP-reductase fusion protein of C. lanceolata (Klein et al. (1992) Mol. Gen. Genet. 233:122-128) and 2 μg of the recombinant KASII/IV preparation. The β-hydroxyacyl-ACPs that were synthesized were precipitated, washed and dissolved as described by Winter et al. (1997) Biochem. J 321:313-318 and then separated by a 2.5 M urea-PAGE. After transfer to an Immobilon P membrane by electroblotting at 0.8 mA/cm for one hour, the reaction products were visualized by autoradiography after five-day exposure on an x-ray film (Hyperfilm MP, Amersham, Braunschweig, Germany).
In the assays, saturated acyl-ACP (C4 through C16) was added to the reaction mixture together with [2- ^4C]-malonyl-ACP and was incubated for ten minutes. Incorporation of the radioactivity from [2- ^4C]-malonyl-ACP into the O-ketoacyl-ACP product, which was reduced to β-hydroxyacyl-ACP for the analysis, was determined. […]

enzymes of the KASI type = details: in the presence of 5 μM cerulenin; cited from earlier work

## C/C=C/C/C=C/CCC(=O)[C@H]1O[C@H]1C(N)=O [cerulenin, Cerulenin]
clKASIV
  IC50: 20 µM
Enzymes of the KASI type
  inactivation of enzymes of the KASI type by cerulenin: completely inactivated

Source: patent US20030054524A1, “Method of increasing the fatty acid content in plant seeds” (priority 1999, published 2003)
